Results reported in patent US11519922B2, “Methods for identifying risk of chemotherapy-induced cardiotoxicity and targeted medical intervention” (Detroit R&D, Inc., priority 2018, dated 2022).
Entries after “also recorded” stand apart in the source; their conditions may differ.

Experiments:
rat heart tissue [1] = experiment: Heart tissue mRNA biomarkers by RT-PCR in DOX-treated female rats; details: DOX 3 mg/kg/week 2 weeks, no recovery, normalized by β-actin mRNA
Procedure: Rats were euthanized at 48 hr (no recovery) or after 2 weeks (2 weeks recovery) following injection of the rats for 2 weeks with saline (control) or DOX (3 mg/kg/week). BNP mRNA levels in heart were assessed by qRT-PCR and results were normalized by β-actin mRNA (A). […] Results expressed as mean±SD (n=4-6). *p<0.05 and **p<0.01;
A study on serum biomarkers to detect risk of chemotherapy-induced cardiotoxicity was carried out using female rats treated with and without DOX (3 mg/kg/week, i.v. for 2 weeks) (no recovery group: Control and DOX, n=6/group) and with a 2-week recovery period (2 weeks recovery group: Control and DOX, n=6/group).
BNP mRNA levels in heart tissues were measured by reverse-transcription/real time PCR (Sybr green) and normalized using β-actin mRNA levels (13).
Heart total RNA was extracted using the TRIzol method, cDNA was synthesized using High Capacity cDNA Reverse Transcript Kit (Applied Biosystems). Levels of mRNA in cardiomyocytes were measured by real time PCR (Sybr green) using rat specific primers.

[2] = tested on: plasma of breast cancer patients; experiment: Plasma 14,15-DHET by ELISA in breast cancer patients before and after DOX
Procedure: Plasma samples were extracted using ethyl acetate and levels of 14,15-DHET were assessed in triplicate for ELISA.
A blind test for the early biomarker, 14,15-DHET (metabolite of sEH), was carried out with plasma samples from 5 breast cancer patients obtained before and after 3 months of DOX treatment (FIG. 4).
Fatty acids in the plasma samples (50 μl/sample) were extracted with ethyl acetate and levels of 14,15-DHET were assessed in triplicate samples using an ELISA kit from Detroit R&D.
Plasma samples from 5 breast cancer patients obtained before (n=5) and after (n=5) 3 months of DOX treatment (60 mg/m^2/injection for 4 injections).
Biologically active fatty acids in the plasma samples (50 μl/sample) were extracted with ethyl acetate, dried and re-suspended with 30 μl of DMF followed by dilution buffer to 900 μl. Levels of 14,15-DHET were assessed in triplicate using an ELISA kit from Detroit R&D (100 μl/well).

[3] = tested on: plasma of breast cancer patients; experiment: Plasma troponin I (TnI) in breast cancer patients after DOX treatment; assay type: in vivo, human
rat heart tissue [4] = experiment: Histological analysis of heart tissue of DOX-treated rats; assay type: in vivo; details: DOX 3 mg/kg/week 2 weeks, 2-week recovery, 40× magnification
Procedure: Heart tissues were dehydrated, imbedded in paraffin and sliced. Slices were incubated in Mayer's hematoxylin reagent (ScyTek) for 5 min and covered with bluing reagent (ScyTek) for 15 seconds and eosin Y (ScyTek) solution for 3 minutes. Images of the rat cardiomyocyte were taken using a Zeiss Axiovert 200 microscope with RT Insight camera and SPOT Advanced Imaging software in 40× magnification at the Microscopy and Imaging Facility at Wayne State University.
Presence of vacuolization in heart tissue, a sign of cardiotoxicity (14), was not observed at 40× magnification.

H9c2 rat cardiomyocytes [5] = experiment: 14,15-DHET in cell media by ELISA; assay type: cell-based; details: 1 μM DOX 2 hr
Procedure: (§1) FIGS. 1A and 1B show the effect of doxorubicin (DOX) on H9c2 rat cardiomyocytes. Cells were treated for 2 hr with media containing 1 μM DOX, washed and kept for 2, 6 and 24 hr in media without DOX. BNP mRNA levels in H9c2 cells were assessed by qRT-PCR (A) and cell media was collected and extracted with ethyl acetate for 14,15-DHET analyses using ELISA kit (Detroit R&D) (B). *p<0.05;
H9c2 cardiomyocytes were treated for 2 hr with and without 1 μM DOX. Levels of 14,15-DHET in cell media increased ˜3-fold (p<0.05) after a 2 hr recovery period prior to detection of cellular hypertrophy at 6 hr and 24 hr recovery periods.
Levels of 14,15-DHET in cardiomyocyte (H9c2 cell) media were assessed by the Detroit R&D 14,15-DHET ELISA. Media, 2 ml, was extracted with 2 ml […]. and levels of 14,15-DHET increased after 2 hr, 6 hr and 24 hr following 2 hr DOX treatment (2 hr, 6 hr and 24 hr recovery) (FIG. 1B).

H9c2 rat cardiomyocytes [6] = experiment: BNP mRNA levels in cells by qRT-PCR; assay type: cell-based; details: 1 μM DOX 2 hr, normalized by β-actin mRNA
Procedure: as §1
Normalized BNP levels were decreased 6 hr and 24 hr after 2 hr of DOX treatment (p<0.05) (FIG. 1A) when cardiomyocyte hypertrophy occurred ([…]).
BNP mRNA was assessed in rat H9c2 cells. […] Results were normalized using β-actin mRNA levels using a rat specific primer (13). Our results have shown that BNP levels were decreased 6 and 24 hr after 2 hr of DOX treatment (FIG. 1A) when cell hypertrophy was detected (FIG. 2).

Heart tissue BNP mRNA (rat heart tissue [1]): No change
Heart tissue MPO mRNA (rat heart tissue [1]): No change
Heart tissue S100A9 mRNA (rat heart tissue [1]): No change
increase of plasma 14,15-DHET ([2]; Patient #3, after vs before 3 months of DOX treatment): ~38%
increase of plasma 14,15-DHET ([2]; Patient #4, after vs before 3 months of DOX treatment): ~55%
plasma 14,15-DHET levels ([2]; Patients #2 and #5, after vs before 3 months of DOX treatment): did not significantly increase
plasma troponin I (TnI) levels ([3]; Patient #3, 3 months after 3 months of DOX treatment): increased
plasma troponin I (TnI) levels ([3]; Patient #4, 3 months after 3 months of DOX treatment): decreased
increase of 14,15-DHET in cell media (H9c2 rat cardiomyocytes [5]; 2 hr recovery): ~3 fold
increase of BNP mRNA (H9c2 rat cardiomyocytes [6]; 2 hr recovery): ~4 fold
Structure (SMILES): COc1cccc2c1C(=O)c1c(O)c3c(c(O)c1C2=O)C[C@@](O)(C(=O)CO)C[C@@H]3O[C@H]1C[C@H](N)[C@H](O)[C@H](C)O1 [DOX, doxorubicin]
plasma troponin I (TnI) levels ([3]; Patients #1, #2 and #5 (no cardiotoxicity), 3 months after 3 months of DOX treatment): increased
vacuolization / heart tissue damage (histology) (rat heart tissue [4]): no vacuolization or heart tissue damage; also recorded: not observed
14,15-DHET levels in cell media (H9c2 rat cardiomyocytes [5]; 6 and 24 hr recovery): remained elevated; also recorded: increased
BNP mRNA levels (H9c2 rat cardiomyocytes [6]; 6 hr and 24 hr recovery): decreased; also recorded: lower than control
